According to US5969115A, “Bisazo dyes and their preparation and use” (Ilford Imaging Switzerland GMBH, priority 1997, dated 1999):

Experiments:
Format in all cases: physicochemical
[1] = Absorption maximum in water
Text: The absorption maxima and the results of the tests (B) to (D) are listed in Table 6 for the dyes of the invention and in Table 7 for the dyes that are state of the art.

[2] = Color co-ordinates (L*a*b*) of printed samples; conditions: for neutral black (color co-ordinates): in words
Protocol: (§1) The present invention, as far as it relates to inks, is further illustrated by the following examples using dyes according to our invention described in Tables 1 and 2 and dyes representing the state of the art described in Tables 3 and 4. 100 g of each ink were prepared by heating the necessary amount of dye (3-7 g), glycerol (5 g), tetraethylenglycol (1.1 g). and a biocide solution (Promexal X50, available from Zeneca, Manchester, England) (1.2 g) together with water at a temperature of 50° C. under stirring for one hour. The resulting solution was cooled down to 20° C., pH was adjusted to 7.5 and passed through a Millipore® filter of 0.5 μm pore diameter. The dye quantity was adjusted in a way that the density of the printed images was the same for all dyes.
(§2) 30 g of gelatin with a high isoelectric point (type St 70,810, available from Deutsche Gelatinefabriken, Eberbach, Germany) were dissolved in 360 ml of deionised water. 1 g of a surfactant (Olin 10G, available from Olin Corporation, Norwalk, USA) were added to this solution. Immediately before coating 6.6 g of a solution of 2-(4-dimethyl-carbamoyl-pyridino)-ethanesulfonate (3%) were added and pH was adjusted to 6.5. 100 g/m^2 of this solution was then coated onto a resin coated paper support using a bar coater. The recording medium prepared in this way was dried for 12 hours.
(§3) The inks were then jetted onto this recording medium with an HP560 ink jet printer from Hewlett-Packard. The properties of the printed samples were evaluated later on.
L*a*b*-values were measured on printed samples using a Gretag SPM 100 spectrometer, available from Gretag AG, Regensdorf, Switzerland.
Black dyes show a neutral hue if the values of a* and b*out of the L*a*b* color co-ordinates are zero.

[3] = Light fastness of printed samples (density loss after xenon lamp irradiation); conditions: for Density loss in %: xenon lamp, total illumination 20 kJoule/cm^2; for light fastness: printed samples, in words
Protocol: as §1, §2, §3
The printed samples were irradiated in an Atlas Ci35A Weather-O-Meter® with a r 6500 W Xenon lamp until a total illumination of 20 kJoule/cm^2 was reached. The density loss was measured with an X-Rite® densitometer. It is expressed as % loss of initial density.

[4] = Dye solubility in deionised water; conditions: for Solubility: deionised water, stirred 1 hour at 50° C., cooled to 20° C., Table 5
Protocol: The dye was dispersed in deionised water and this dispersion was stirred for 1 hour at 50° C. Then the mixture was cooled down to 20° C., centrifuged and filtered. Dye solubility was calculated a) from visible spectral data of the filtered solution or b) based on the dried filter residue.

Structure (SMILES)	HD max in water ([1]; Table 6)	L*a*b*-value: L* ([2]; Table 6)	L*a*b*-value: a* ([2]; Table 6)	L*a*b*-value: b* ([2]; Table 6)	Density loss in % ([3]; Table 6)	other results
O=S(=O)(O)CCNc1ccc2cc(S(=O)(=O)O)c(N=Nc3ccc(N=Nc4cccc(CO)c4)c4ccc(S(=O)(=O)O)cc34)c(O)c2c1 [Compound 1]	582 nm	–	–	–	–	HD max in water (second maximum) ([1]; second value of the cell, Table 6): 440 nm
O=C(O)c1cccc(N=Nc2ccc(N=Nc3c(S(=O)(=O)O)cc4ccc(NCCS(=O)(=O)O)cc4c3O)c3cc(S(=O)(=O)O)ccc23)c1 [Compound 2]	573 nm	2.1	2.0	0.3	0%	–
O=S(=O)(O)CCNc1ccc2cc(S(=O)(=O)O)c(N=Nc3ccc(N=Nc4ccc(S(=O)(=O)O)cc4)c4ccc(S(=O)(=O)O)cc34)c(O)c2c1 [Compound 3]	575 nm	4.3	2.5	-2.5	5%	Solubility [4]: > 20 g per 100 ml; solubility compared with previously known dyes 24 and 26 ([4]; in words): considerably higher solubility
O=S(=O)(O)CCNc1ccc2cc(S(=O)(=O)O)c(N=Nc3ccc(N=Nc4ccc(S(=O)(=O)O)cc4)c4cc(S(=O)(=O)O)ccc34)c(O)c2c1 [Compound 4]	577 nm	8.9	14.4	-7.5	7%	–
O=S(=O)(O)CCNc1ccc2cc(S(=O)(=O)O)c(N=Nc3ccc(N=Nc4ccc(S(=O)(=O)O)cc4)c4ccc(S(=O)(=O)O)cc34)c(O)c2c1 [Compound 5]	576 nm	7.3	2.0	-2.4	6%	Solubility [4]: 16 g per 100 ml; neutral black (color co-ordinates) [2]: neutral blacks; light fastness [3]: excellent light fastness
O=S(=O)(O)CCNc1ccc2cc(S(=O)(=O)O)c(N=Nc3ccc(N=Nc4cccc(S(=O)(=O)O)c4)c4cc(S(=O)(=O)O)ccc34)c(O)c2c1 [Compound 6]	573 nm	7.5	14.6	-6.4	8%	–
O=C(O)Cc1ccc(N=Nc2ccc(N=Nc3c(S(=O)(=O)O)cc4ccc(NCCS(=O)(=O)O)cc4c3O)c3cc(S(=O)(=O)O)ccc23)cc1 [Compound 7]	576 nm	15.5	5.2	-5.9	1%	neutral black (color co-ordinates) [2]: neutral blacks; light fastness [3]: excellent light fastness
O=S(=O)(O)CCNc1ccc2cc(S(=O)(=O)O)c(N=Nc3ccc(N=Nc4ccc(CS(=O)(=O)O)cc4)c4cc(S(=O)(=O)O)ccc34)c(O)c2c1 [Compound 9]	575 nm	22.9	11.0	-5.2	14%	–
O=P(O)(O)Cc1ccc(N=Nc2ccc(N=Nc3c(S(=O)(=O)O)cc4ccc(NCCS(=O)(=O)O)cc4c3O)c3cc(S(=O)(=O)O)ccc23)cc1 [Compound 10]	578 nm	2.0	1.5	0.1	13%	–
O=S(=O)(O)CCNc1ccc2cc(S(=O)(=O)O)c(N=Nc3ccc(N=Nc4ccc(CCO)cc4)c4ccc(S(=O)(=O)O)cc34)c(O)c2c1 [Compound 11]	577 nm	18.3	4.2	-3.1	11%	–
O=C(O)CCc1ccc(N=Nc2ccc(N=Nc3c(S(=O)(=O)O)cc4ccc(NCCS(=O)(=O)O)cc4c3O)c3cc(S(=O)(=O)O)ccc23)cc1 [Compound 12]	576 nm	12.1	3.8	-3.1	4%	neutral black (color co-ordinates) [2]: neutral blacks; light fastness [3]: excellent light fastness
O=C(O)CCc1cccc(N=Nc2ccc(N=Nc3c(S(=O)(=O)O)cc4ccc(NCCS(=O)(=O)O)cc4c3O)c3cc(S(=O)(=O)O)ccc23)c1 [Compound 13]	575 nm	–	–	–	4%	–
O=C(O)CCC(NC(=O)c1ccc(N=Nc2ccc(N=Nc3c(S(=O)(=O)O)cc4ccc(NCCS(=O)(=O)O)cc4c3O)c3cc(S(=O)(=O)O)ccc23)cc1)C(=O)O (centres unmarked) [Compound 14]	576 nm	19.5	7.5	2.4	2%	–
Nc1ccc2cc(S(=O)(=O)O)c(N=Nc3ccc(N=Nc4cccc(C(=O)O)c4)c4ccc(S(=O)(=O)O)cc34)c(O)c2c1 [Compound 23, reference compound]	–	–	–	–	–	HD max in water ([1]; state of the art dyes, Table 7): 570 nm; Density loss in % ([3]; state of the art dyes, Table 7): 2%
Nc1ccc2cc(S(=O)(=O)O)c(N=Nc3ccc(N=Nc4cc(C(=O)O)cc(C(=O)O)c4)c4ccc(S(=O)(=O)O)cc34)c(O)c2c1 [Compound 24, reference compound]	–	–	–	–	–	Solubility [4]: 12 g per 100 ml; HD max in water ([1]; state of the art dyes, Table 7): 571 nm; L*a*b*-value: L* ([2]; state of the art dyes, Table 7): 27.0; L*a*b*-value: a* ([2]; state of the art dyes, Table 7): -0.7; L*a*b*-value: b* ([2]; state of the art dyes, Table 7): -8.8
Nc1ccc2cc(S(=O)(=O)O)c(N=Nc3ccc(N=Nc4cc(C(=O)O)cc(C(=O)O)c4)c4cc(S(=O)(=O)O)ccc34)c(O)c2c1 [Compound 25, reference compound]	–	–	–	–	–	HD max in water ([1]; state of the art dyes, Table 7): 556 nm; L*a*b*-value: L* ([2]; state of the art dyes, Table 7): 10.6; L*a*b*-value: a* ([2]; state of the art dyes, Table 7): 11.7; L*a*b*-value: b* ([2]; state of the art dyes, Table 7): -0.6; Density loss in % ([3]; state of the art dyes, Table 7): 2%
O=C(O)CCNc1ccc2cc(S(=O)(=O)O)c(N=Nc3ccc(N=Nc4ccc(C(=O)O)cc4)c4ccc(S(=O)(=O)O)cc34)c(O)c2c1 [Compound 27, reference compound]	–	–	–	–	–	HD max in water ([1]; state of the art dyes, Table 7): 564 nm; L*a*b*-value: L* ([2]; state of the art dyes, Table 7): 23.7; L*a*b*-value: a* ([2]; state of the art dyes, Table 7): 15.1; L*a*b*-value: b* ([2]; state of the art dyes, Table 7): -16.6; Density loss in % ([3]; state of the art dyes, Table 7): 12%
Nc1ccc2cc(S(=O)(=O)O)cc(O)c2c1N=Nc1ccc(N=Nc2ccc(O)c(C(=O)O)c2)c2ccc(S(=O)(=O)O)cc12 [Compound 28, reference compound]	–	–	–	–	–	L*a*b*-value: L* ([2]; state of the art dyes, Table 7): 18.8; L*a*b*-value: a* ([2]; state of the art dyes, Table 7): 18.1; L*a*b*-value: b* ([2]; state of the art dyes, Table 7): -4.1

Further lines, with some results ahead:

HD max in water ([1]; Table 6)	L*a*b*-value: L* ([2]; Table 6)	L*a*b*-value: a* ([2]; Table 6)	L*a*b*-value: b* ([2]; Table 6)	Density loss in % ([3]; Table 6)	Structure (SMILES)	other results
590 nm	4.7	4.5	-1.7	8%	O=C(O)c1ccc(N=Nc2ccc(N=Nc3c(S(=O)(=O)O)cc4ccc(NCCS(=O)(=O)O)cc4c3O)c3cc(S(=O)(=O)O)ccc23)cc1Cl [Compound 15]	neutral black (color co-ordinates) [2]: neutral blacks; light fastness [3]: excellent light fastness
568 nm	5.7	2.6	2.3	2%	O=C(O)c1cc(N=Nc2ccc(N=Nc3c(S(=O)(=O)O)cc4ccc(NCCS(=O)(=O)O)cc4c3O)c3ccc(S(=O)(=O)O)cc23)cc(C(=O)O)c1 [Compound 17]	–
553 nm	3.5	4.4	0.3	5%	O=S(=O)(O)CCNc1ccc2cc(S(=O)(=O)O)c(N=Nc3ccc(N=Nc4cc(Cl)c(S(=O)(=O)O)cc4Cl)c4ccc(S(=O)(=O)O)cc34)c(O)c2c1 [Compound 18]	neutral black (color co-ordinates) [2]: neutral blacks; light fastness [3]: excellent light fastness
581 nm	–	–	–	1%	O=S(=O)(O)CCNc1ccc2cc(S(=O)(=O)O)c(N=Nc3ccc(N=Nc4cc(S(=O)(=O)O)c5cccc(S(=O)(=O)O)c5c4)c4ccc(S(=O)(=O)O)cc34)c(O)c2c1 [Compound 19]	–
582 nm	9.4	3.8	-3.6	3%	O=S(=O)(O)CCNc1ccc2cc(S(=O)(=O)O)c(N=Nc3ccc(N=Nc4ccc5c(S(=O)(=O)O)cc(S(=O)(=O)O)cc5c4)c4ccc(S(=O)(=O)O)cc34)c(O)c2c1 [Compound 20]	neutral black (color co-ordinates) [2]: neutral blacks; light fastness [3]: excellent light fastness
